Here are results for three compounds from US20240261292A1, “COMBINATION THERAPIES” (Janssen Pharmaceutica NV, priority 2021, published 2024).

Where two headings read alike, the source gives them in different places.

One data set has as its system OCI-AML3 tumors. The following applies: established OCI-AML3 tumors, NSG mice, 4 weeks; Azacitidine 2 mg/kg ip QD × 7; Compound A1 30 mg/kg po QD × 28.
The test system of data set [1] is MOLM-13 tumors. The following applies: established MOLM-13 tumors, NSG mice, 4 weeks; Azacitidine 2 mg/kg ip QD × 7; Compound A1 10 mg/kg po QD × 28.
Protocol: 11) Efficacy of Menin-MLL Inhibitor in Combination with Azacitidine, in MOLM-13 (KMT2A-r) IV Model in NSG Mice
Each mouse received an injection of 1×10^5 MOLM-13 cells, and all other parameters were conducted as described for experiment (10).
A short description of data set [2]: Mouse PK (in vivo T1/2 and oral bioavailability). The following applies: male, CD-1, mouse, in vivo, fasted male CD-1 mice, formulating agent: A HP-β-CD, A3 Pyrogen free water. As to the method:
3) Mouse PK (In Vivo T1/2 and Oral Bioavailability)
In vivo pharmacokinetics (PK) were assessed in fasted male CD-1 mice (age 6-8 weeks) following a single intravenous (IV, 0.5 or 1.0 mg/kg administered at 2.5 ml/kg) or oral (PO, 5 mg/kg administered at 10 ml solution/kg) dose of test article formulated in a 20% (w:vol) HP-β-CD solution or in Pyrogen free water.
Plasma and/or whole blood samples were collected from the dorsal metatarsal vein at desired timepoints via serial capillary microsampling (approx. 0.03 mL) using EDTA as an anticoagulant. Concentrations of compound in the plasma and blood samples were analyzed using a qualified LC-MS/MS method. In silico analysis of main pharmacokinetic parameters was performed using WinNonlin (Phoenix™, version 6.1) or similar software.)

The nature of data set [3]: Metabolic stability in mouse liver microsomes. Type of data set: in vitro ADME. The following applies: liver microsomes, pH 7.4, 0.5 mg/mL microsomes protein, read-out: Mouse LM Clint. As to the method: 4) Metabolic Stability in Human/Mouse Liver Microsomes
The objective of this study is to measure in vitro metabolic stability of test compound(s) in human and mouse liver microsomes and provide quantitative information on the rate of metabolic turnover (i.e., determination of the apparent intrinsic clearance of test).
Test items were prepared at a stock concentration of 10 mM in DMSO. For determination of metabolic turnover, a final working solution was prepared by adding 2 μL of 10 mM DMSO stock solution for test compound or positive control compounds to 198 μL of acetonitrile (100 μM final concentration).
Incubations were performed as follows: First, liver microsomes were thawed on ice and a master solution containing liver microsomes in 100 mM PBS (phosphate-buffered saline) at pH 7.4 is prepared. Next, the liver microsomes solution was added to the incubation plates and 10 mM NADPH (Nicotinamide-adenine dinucleotide phosphate) was added (MW: 833.4 g/mol; Roche Diagnostics GmbH1, Germany. Dissolved in phosphate buffer (100 mmol/L, pH 7.4)). The mixture was mixed for 10 seconds and pre-warmed in the incubation plate at 37° C. for 10 minutes. The metabolic reaction was initiated with the addition of 5 μL of the 100 μM working solution for test compound or positive control compounds to incubation plate (final test item concentration=1 μM). The reaction final mixture should contain 1 mM NADPH, 0.5 mg/mL microsomes protein and 1 μM test compound or positive control compound in 100 mM PBS at pH 7.4. The percentage of organic solvent in incubation mixture is 1% with DMSO 0.02%.
The reaction was quenched by transferring 50 μL of the incubated mixture at selected time points into the quenching plate containing 200 μL of cold methanol. […]
All calculations were carried out using Microsoft Excel. The slope value, k, was determined by linear regression of the natural logarithm of the remaining percentage of the parent drug vs. incubation time curve.
The in vitro half-life (in vitro t1/2) was determined from the slope value: […]

Another data set has as its target hERG potassium channel (Homo sapiens (Human), UniProt Q12809). Put plainly: Membrane potassium current IKr in hERG transfected CHO cells (Protocol 1, QPatch). The conditions noted are these: Protocol 1, CHO cells. Type of data set: cell-based. As to the method:
Experiments were performed using CHO cells stably expressing the hERG potassium channel. Cells were grown at 37° C. and 5% CO2 in culture flasks in Ham's F12 Medium supplemented with 10% heat-inactivated fetal calf serum, hygromycin B (100 μg/ml) and geneticin (100 μg/ml). For use in the automated patch-clamp system QPatch (Sophion) cells were harvested to obtain cell suspension of single cells. […]
Patch-clamp experiments were performed in the voltage-clamp mode and whole-cell currents were recorded with an automated patch-clamp assay utilizing the QPatch system (Sophion). Current signals were amplified and digitized, stored and analyzed by using the QPatch assay software.
The holding potential was −80 mV. The hERG current (K^+-selective outward current) was determined as the maximal tail current at −40 mV after a 2 second depolarization to +60 mV. […] The effect of each concentration was determined after 5 min as an average current of 3 sequential voltage pulses. […]
Concentration/response relations were calculated by non-linear least-squares fits to the individual data points. The half-maximal inhibiting concentration (IC50) was calculated by the fitting routine.
On the technique in general: The hERG channel carries a current that helps repolarise heart muscle cells.

Data set [4] concerns MOLM-13 tumors. Put plainly: Efficacy of menin-MLL inhibitor in combination with gilteritinib in MOLM-13 (KMT2A-r) IV model. Type of data set: in vivo. The conditions noted are these: established MOLM-13 tumors, NSG mice, 4 weeks; Gilteritinib 10 mg/kg po QD × 28; Compound A1 10 mg/kg po QD × 28. The source says: 12) Efficacy of Menin-MLL Inhibitor in Combination with Gilteritinib, in MOLM-13 (KMT2A-r) IV Model in NSG Mice

What is called half-life is the time needed for the level to fall by half in the phase considered. Higher therefore signals slow decline. One may read the bioavailability as the share of a dose that reaches the circulation, judged against a reference dose that is usually intravenous. What is called IC50 is the concentration that gives 50% inhibition. High values mean weaker potency, low ones greater potency.

Sequence of hERG potassium channel (Q12809 whole entry): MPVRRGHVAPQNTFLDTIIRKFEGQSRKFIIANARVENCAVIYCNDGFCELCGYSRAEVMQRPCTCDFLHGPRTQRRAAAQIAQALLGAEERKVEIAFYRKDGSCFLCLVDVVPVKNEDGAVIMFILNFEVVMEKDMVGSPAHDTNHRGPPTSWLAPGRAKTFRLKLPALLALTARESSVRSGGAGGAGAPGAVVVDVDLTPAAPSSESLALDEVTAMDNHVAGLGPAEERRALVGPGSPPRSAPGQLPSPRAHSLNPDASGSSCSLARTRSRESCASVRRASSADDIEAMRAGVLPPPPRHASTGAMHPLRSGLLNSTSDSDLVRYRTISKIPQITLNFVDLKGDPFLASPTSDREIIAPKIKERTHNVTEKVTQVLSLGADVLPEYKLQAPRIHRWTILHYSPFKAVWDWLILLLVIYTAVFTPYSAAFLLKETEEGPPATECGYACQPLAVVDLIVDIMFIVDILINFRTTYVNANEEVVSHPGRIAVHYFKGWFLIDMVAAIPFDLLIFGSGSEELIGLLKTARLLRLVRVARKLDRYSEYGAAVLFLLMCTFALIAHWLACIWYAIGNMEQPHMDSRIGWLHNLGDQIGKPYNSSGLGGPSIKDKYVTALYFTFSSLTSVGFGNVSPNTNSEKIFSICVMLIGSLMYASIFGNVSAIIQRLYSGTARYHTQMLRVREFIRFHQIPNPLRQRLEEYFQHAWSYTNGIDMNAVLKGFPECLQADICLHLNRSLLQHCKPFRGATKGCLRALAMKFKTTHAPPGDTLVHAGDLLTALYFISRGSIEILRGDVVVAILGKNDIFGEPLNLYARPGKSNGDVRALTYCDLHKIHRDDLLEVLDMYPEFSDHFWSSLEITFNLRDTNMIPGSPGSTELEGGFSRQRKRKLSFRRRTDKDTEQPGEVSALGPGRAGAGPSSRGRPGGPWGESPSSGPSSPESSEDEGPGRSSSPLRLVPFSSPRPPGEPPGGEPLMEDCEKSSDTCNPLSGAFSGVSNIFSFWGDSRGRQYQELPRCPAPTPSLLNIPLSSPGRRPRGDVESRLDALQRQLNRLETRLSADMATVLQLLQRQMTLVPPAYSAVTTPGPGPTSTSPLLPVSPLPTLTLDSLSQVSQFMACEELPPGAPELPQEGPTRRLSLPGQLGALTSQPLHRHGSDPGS
Protocol for OCI-AML3 tumors: For survival assessment, results were plotted as the percentage survival against days post tumor implant. Negative clinical signs and/or ≥20% body weight loss was used as a surrogate endpoint for death. Median survival was determined utilizing Kaplan-Meier survival analysis. The percent increased life span (ILS) was calculated as: ((median survival day of treated group—median survival day of control group)/median survival day of control group)×100. Animals failing to reach the surrogate endpoint due to adverse clinical signs (such as ulcerated tumors, body weight loss, etc.) or death unrelated to treatment were censored for the survival assessment.

As for `Nc1ncn([C@@H]2O[C@H](CO)[C@@H](O)[C@H]2O)c(=O)n1` [Azacitidine], the “% ILS” value in the data set with OCI-AML3 tumors is on record as “*18%”; in the data set with MOLM-13 tumors [1] it was “*35%”.
`CCN(C(=O)c1cc(F)ccc1Oc1nncnc1N1CCC2(C1)CN([C@H](CCCN(C)CCOC)C(C)C)C2)C(C)C` [Compound A, (R)-N-ethyl-5-fluoro-N-isopropyl-2-((5-(2-(6-((2-methoxyethyl) (methyl)amino)-2-methylhexan-3-yl)-2,6-diazaspiro[3.4]octan-6-yl)-1,2,4-triazin-6-yl)oxy) benzamide] had a half-life in data set [2] (iv, 1 mg/kg, single IV 0.5 or 1.0 mg/kg) of 6.7 h. Besides, the bioavailability in data set [2] (po, 5 mg/kg, single PO 5 mg/kg) stood at 17%. In data set [3], the microsomal CLint at 1 μM is less than 7.5 µL/min/mg. The same compound gave an IC50 at hERG potassium channel of more than 30.2 µM.
As to `CCc1nc(C(N)=O)c(Nc2ccc(N3CCC(N4CCN(C)CC4)CC3)c(OC)c2)nc1NC1CCOCC1` [Gilteritinib, gilteritinib], the “% ILS” value in the data set on MOLM-13 tumors [4] was “*63%”.
